Measured values taken from US8450304B2, “4-azetidinyl-1-heteroaryl-cyclohexanol antagonists of CCR2” (Janssen Pharmaceutica N.V., priority 2008, dated 2013).

Legend:
[1] = test system: total BAL leukocyte count (and eosinophil count); assay: Mouse model of allergic asthma; assay type: in vivo; details: 10 mpk, p.o. bid; OVA-sensitized mice; BAL on day 21
From the text: (§1) Mouse CCR2 knock-out/human CCR2 knock-in mice were generated using targeted 129Sv/Evbrd embryonic stem cell clones injected into C57BL/6 mice. Expression of the hCCR2 transcript was confirmed by quantitative reverse transcription-polymerase chain reaction performed on spleen and blood total RNA from homozygous hCCR2 knock-in mice. Backcrossing into C57BL/6 genetic background continued to the eighth generation. Transgenic mice were housed in a specific-pathogen-free, temperature-controlled facility that maintained a 12-hour light/12-hour dark cycle. Mice had free access to water and food. […]
Animals were sensitized by intraperitoneal injection of 10 μg chicken egg albumin (OVA) absorbed to 1 mg Imject® in 100 μL phosphate-buffered saline (PBS) on days 0 and 5. […] On day 21, 2 hours post the last dose of CCR2 compounds, bronchial reactivity to aerosolized methacholine was measured using a Buxco whole body plethysmograpgh. […] Bronchoalveolar lavage fluid was collected (1 mL) and total cells counted. The numbers of eosinophils, lymphocytes, monocytes and neutrophils were determined using cytospin analysis after Giemsa staining (Hema Tek 2000). Percent inhibition of total BAL leukocyte count (and eosinophil count) was calculated by comparing the compound-treated mice with vehicle-treated mice. […]

[2] = test system: thioglycollate-induced peritonitis; assay: Thioglycollate-induced peritonitis in mice; assay type: in vivo; details: 10 mpk, p.o. bid; 72-hour time point; leukocytes in peritoneal lavage vs vehicle
From the text: (§2) Mouse CCR2 knock-out/human CCR2 knock-in mice were generated using targeted 129Sv/Evbrd embryonic stem cell clones injected into C57BL/6 mice. Expression of the hCCR2 transcript was confirmed by quantitative reverse transcription-polymerase chain reaction performed on spleen and blood total RNA from homozygous hCCR2 knock-in mice. Backcrossing into C57BL/6 genetic background continued to the eighth generation. Transgenic mice were housed in a specific-pathogen-free, temperature-controlled facility that maintained a 12-hour light/12-hour dark cycle. Mice had free access to water and food. Experimental procedures were carried out in accordance with institutional standards for animal care and were approved by the institute's animal care and use committee.
Animals were orally dosed with vehicle or CCR2 antagonists at 3, 10, 30 and 100 mg/kg bid). One hour later, the animals were intraperiponeally injected with sterile thioglycollate (25 mL/kg, ip, Sigma) for induction of peritonitis. Animals were orally treated twice daily with vehicle or CCR2 antagonists. At 72-hour time point, perinoteal cavities were lavaged with 10 mL of sterile saline. […] Percent inhibition of the thioglycollate-induced peritonitis was calculated by comparing the change in number of leukocytes of CCR2 antagonist treated mice to the vehicle-treated mice.

[3] = High-fat diet induced obesity and insulin resistance in mice; assay type: in vivo; details: 10 mpk, p.o. bid; high-fat diet obese mice; 40 days treatment
From the text: as §1
Obesity was induced by a high-fat diet that derived approximately 60% calories from lipids (D-12492; Research Diets Inc.) in animals for 10-24 weeks at age of 7 weeks. […] Body weight and food intake and fasting blood glucose levels were monitored. Body mass was determined by a NMR analyzer (Burker MiniSpec). […] After an intraperitoneal bolus injection of recombinant human insulin (1.5 U/kg), blood glucose concentrations were measured using a Glucometer before and 15, 30, 45, 60, 90 and 120 minutes after injection. […] Blood glucose concentrations were measured before and after 15, 30, 60, 90, 120 minutes after an oral dose of glucose dissolved in water (1 g/kg). Energy expenditure analysis was monitored by a complete laboratory animal monitor system. […]

[4] = test system: MCP-1-induced monocyte recruitment to airway; assay: MCP-1-induced monocyte recruitment to airway of mice; assay type: in vivo; details: 10 mpk, p.o. bid; 4 μg MCP-1 intranasally; after 48 h
From the text: as §2
Animals were orally treated with vehicle or CCR2 antagonists at 3, 10, and 30 mg/kg po bid). One hour later, the animals were intranasally dosed with 4 μg of MCP-1 in sterile saline. The animals were orally treated twice daily with vehicle or CCR2 antagonists. After 48 h, mice were euthanized by intraperitoneal injection of anesthesia solution (Sleepaway-Sodium pentobarbital). […] Percent inhibition was calculated by comparing the change in number of total leukocyte counts (including monocytes/macrophages and lymphocytes) of compound-treated mice to the vehicle-treated mice. […]

[5] = test system: cell migration; assay: Murine in vivo cell migration assay; parameters: species or system mice; details: 10 mpk, P.O. bid; human MCP-1 on small bowel serosa; 24 hours
From the text: as §2
Animals were orally dosed with vehicle or CCR2 antagonists at 3, 10 and 30 mg/kg bid. Animals underwent anesthesia and laparotomy. A distal loop of small bowel (5 cm in length) was gently eventrated onto moist sterile gauze. Synthetic human MCP-1 ([…] sterile PBS) or PBS alone was administered drop-wise onto the serosa of the eventrated loop. A suture knot was placed into the mesentery to mark the terminus of the treated area. Twenty-four hours later, the animal was sacrificed and the segment of bowel plus the adjacent region was removed. The tissue was opened along the mesenteric border, pinned flat and the mucosa removed. […]

[6] = biological target: T1, CCR2 (Homo sapiens, UniProt P41597); assay: MCP-1 Receptor Binding Assay in THP-1 Cells; details: 0.5 nM 125I labeled MCP-1, 2 hours at 30° C., read-out: Inhibition of MCP-1 Binding IC50, CCR2 Binding
T1 construct: host or cells: THP-1 (human monocytic cell line), whole cells
T1 sequence (P41597 whole entry): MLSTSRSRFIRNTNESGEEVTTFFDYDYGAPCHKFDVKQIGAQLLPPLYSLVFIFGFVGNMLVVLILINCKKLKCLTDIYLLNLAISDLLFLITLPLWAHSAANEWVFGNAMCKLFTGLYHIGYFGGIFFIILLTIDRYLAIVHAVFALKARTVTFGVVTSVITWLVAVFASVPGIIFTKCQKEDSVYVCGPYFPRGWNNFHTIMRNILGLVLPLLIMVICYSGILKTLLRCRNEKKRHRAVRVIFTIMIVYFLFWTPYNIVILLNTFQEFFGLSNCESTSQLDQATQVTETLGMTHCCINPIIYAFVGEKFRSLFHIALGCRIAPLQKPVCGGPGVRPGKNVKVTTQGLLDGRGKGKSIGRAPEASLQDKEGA
Method: Compounds of the invention were subjected to various representative biological tests. […] MCP-1 Receptor Binding Assay in THP-1 Cells
Human monocytic cell line THP-1 cells were obtained from American Type Culture Collection (Manassas, Va., USA). […] The cell density was maintained […].
1 μM cold MCP-1 was used for nonspecific binding.

O=C(CNC(=O)c1cccc(C(F)(F)F)c1)NC1CN(C2CCC(O)(c3cncs3)CC2)C1 (centres unmarked) [Example 40, N-{[1-(4-Hydroxy-4-thiazol-5-yl-cyclohexyl)-azetidin-3-ylcarbamoyl]-methyl}-3-trifluoromethyl-benzamide]
reduction of cell count (efficacious if the inhibition reaches 30%) [1]: efficacious
inhibition of thioglycollate-induced peritonitis [2]: > 50%
reduce body weight (percent of weight loss vs vehicle-treated mice) [3]: > 8%
percent inhibition of total leukocyte counts in BAL [4]: > 50%
blocking cell migration (efficacious if the inhibition of cell migration reaches 30% compared with vehicle-treated animals) [5]: efficacious

CN(C)Cc1ncc(C2(O)CCC(N3CC(NC(=O)CNC(=O)c4cccc(C(F)(F)F)c4)C3)CC2)s1 (centres unmarked) [Example 56, N-({1-[4-(2-Dimethylaminomethyl-thiazol-5-yl)-4-hydroxy-cyclohexyl]-azetidin-3-ylcarbamoyl}-methyl)-3-trifluoromethyl-benzamide]
IC50 [6]: 0.31 µM

C#Cc1ncc(C2(O)CCC(N3CC(NC(=O)CNC(=O)c4cccc(C(F)(F)F)c4)C3)CC2)s1 (single isomer, unassigned) [Example 44a, N-({1-[4-(2-Ethynyl-thiazol-5-yl)-4-hydroxy-cyclohexyl]-azetidin-3-ylcarbamoyl}-methyl)-3-trifluoromethyl-benzamide]
IC50 [6]: 0.34 µM

COc1ncc(C2(O)CCC(N3CC(NC(=O)CNC(=O)c4cccc(C(F)(F)F)c4)C3)CC2)c(OC)n1 (single isomer, unassigned) [Example 29a, N-({1-[4-(2,4-Dimethoxy-pyrimidin-5-yl)-4-hydroxy-cyclohexyl]-azetidin-3-ylcarbamoyl}-methyl)-3-trifluoromethyl-benzamide]
IC50 [6]: 24 µM

Cc1ccc(C2(O)CCC(N3CC(NC(=O)CNC(=O)c4cc(C(F)(F)F)ccc4C(F)(F)F)C3)CC2)cn1 (single isomer, unassigned) [Example 69a, N-({1-[4-Hydroxy-4-(6-methyl-pyridin-3-yl)-cyclohexyl]-azetidin-3-ylcarbamoyl}-methyl)-2,5-bis-trifluoromethyl-benzamide]
IC50 [6]: 0.24 µM

COc1ccc(C2(O)CCC(N3CC(NC(=O)CNC(=O)c4cccc(Cl)c4)C3)CC2)cn1 (centres unmarked) [Example 24, 3-Chloro-N-({1-[4-hydroxy-4-(6-methoxy-pyridin-3-yl)-cyclohexyl]-azetidin-3-ylcarbamoyl}-methyl)-benzamide]
IC50 [6]: 1.6 µM

CN(C)c1ncc(C2(O)CCC(N3CC(NC(=O)CNC(=O)c4cccc(C(F)(F)F)c4)C3)CC2)s1 (centres unmarked) [Example 50, N-({1-[4-(2-Dimethylamino-thiazol-5-yl)-4-hydroxy-cyclohexyl]-azetidin-3-ylcarbamoyl}-methyl)-3-trifluoromethyl-benzamide]
IC50 [6]: 0.56 µM

COc1ccc(C2(O)CCC(N3CC(NC(=O)CNC(=O)c4cc(F)c(F)c(F)c4)C3)CC2)cn1 (centres unmarked) [Example 17, 3,4,5-Trifluoro-N-({1-[4-hydroxy-4-(6-methoxy-pyridin-3-yl)-cyclohexyl]-azetidin-3-ylcarbamoyl}-methyl)-benzamide]
IC50 [6]: 6.4 µM

CS(=O)(=O)c1ncc(C2(O)CCC(N3CC(NC(=O)CNC(=O)c4cccc(C(F)(F)F)c4)C3)CC2)s1 (single isomer, unassigned) [Example 47a, N-({1-[4-Hydroxy-4-(2-methanesulfonyl-thiazol-5-yl)-cyclohexyl]-azetidin-3-ylcarbamoyl}-methyl)-3-trifluoromethyl-benzamide]
IC50 [6]: 0.26 µM

C[Si](C)(C)c1ncc(C2(O)CCC(N3CC(NC(=O)CNC(=O)c4cccc(C(F)(F)F)c4)C3)CC2)s1 (single isomer, unassigned) [Example 39a, N-({1-[4-Hydroxy-4-(2-trimethylsilanyl-thiazol-5-yl)-cyclohexyl]-azetidin-3-ylcarbamoyl}-methyl)-3-trifluoromethyl-benzamide]
IC50 [6]: 0.013 µM

O=C(CNC(=O)c1cccc(C(F)(F)F)c1)NC1CN(C2CCC(O)(c3cnc(O)s3)CC2)C1 (centres unmarked) [Example 48, N-({1-[4-Hydroxy-4-(2-hydroxy-thiazol-5-yl)-cyclohexyl]-azetidin-3-ylcarbamoyl}-methyl)-3-trifluoromethyl-benzamide]
IC50 [6]: 0.56 µM

O=C(CNC(=O)c1cc(F)cc(C(F)(F)F)c1)NC1CN(C2CCC(O)(c3cncs3)CC2)C1 (centres unmarked) [Example 65, 3-Fluoro-N-{[1-(4-hydroxy-4-thiazol-5-yl-cyclohexyl)-azetidin-3-ylcarbamoyl]-methyl}-5-trifluoromethyl-benzamide]
IC50 [6]: 0.07 µM

Cc1csc(C2(O)CCC(N3CC(NC(=O)CNC(=O)c4cccc(C(F)(F)F)c4)C3)CC2)n1 (single isomer, unassigned) [Example 38a, N-({1-[4-Hydroxy-4-(4-methyl-thiazol-2-yl)-cyclohexyl]-azetidin-3-ylcarbamoyl}-methyl)-3-trifluoromethyl-benzamide]
IC50 [6]: 0.37 µM
